Measured values taken from US20070027150A1 (priority 2005, published 2007).

molecular target: His-tagged N-terminal ATP binding domain (amino acid residues 9-236) of HSP90α (Homo sapiens, UniProt P07900); assay: HSP90 inhibitor binding potency: TRF competition binding assay; settings: Table II; read-out: Hsp90 IC50 Range
Outline: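 Competition against biotinylated radicicol for binding to the His-tagged 9-236 ATP domain of HSP90α: 2 h, room temperature, HEPES/MgCl2/KCl/BSA buffer. Streptavidin capture, then europium-labeled anti-His antibody and enhancement solution; europium counts give IC50.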

Row | IC50 [µM] | Compound
1 | < 1 | Cc1nc(N)nc2c1C(=O)CC(c1ccc(F)cc1-c1cccc3ccccc13)C2 (stereo not drawn) [Compound 212, 2-amino-7-(4-fluoro-2-naphthalen-1-yl-phenyl)-4-methyl-7,8-dihydro-6H-quinazolin-5-one]
2 | 1 to 10 | Cc1nc(N)nc2c1C(=O)C[C@H](c1ccc(F)cc1-c1cccc(F)n1)C2 [Compound 213, (R)-2-amino-7-[4-fluoro-2-(6-fluoro-pyridin-2-yl)-phenyl]-4-methyl-7,8-dihydro-6H-quinazolin-5-one]
3 | < 1 | Cc1nc(N)nc2c1C(=O)C[C@@H](c1ccc(F)cc1-c1cccc(F)n1)C2 [Compound 214, (S)-2-amino-7-[4-fluoro-2-(6-fluoro-pyridin-2-yl)-phenyl]-4-methyl-7,8-dihydro-6H-quinazolin-5-one]
4 | 1 to 10 | Cc1nc(N)nc2c1C(=O)CC(c1c(-c3cccnc3F)cnn1Cc1ccccc1)C2 (stereo not drawn) [Compound 215, 2-amino-7-[2-benzyl-4-(2-fluoro-pyridin-3-yl)-2H-pyrazol-3-yl]-4-methyl-7,8-dihydro-6H-quinazolin-5-one]
5 | < 1 | COc1cccc(-c2ccccc2C2CC(=O)c3c(nc(N)nc3C(F)(F)F)C2)n1 (stereo not drawn) [Compound 216, 2-amino-7-[2-(6-methoxy-pyridin-2-yl)-phenyl]-4-trifluoromethyl-7,8-dihydro-6H-quinazolin-5-one]
6 | < 1 | Cc1nc(N)nc2c1C(=O)CC(c1c(F)cccc1-c1cccnc1F)C2 (stereo not drawn) [Compound 217, 2-amino-7-[2-fluoro-6-(2-fluoro-pyridin-3-yl)-phenyl]-4-methyl-7,8-dihydro-6H-quinazolin-5-one]
7 | < 1 | Cc1nc(N)nc2c1C(=O)CC(c1c(F)cccc1-c1cncnc1)C2 (stereo not drawn) [Compound 218, 2-amino-7-(2-fluoro-6-pyrimidin-5-yl-phenyl)-4-methyl-7,8-dihydro-6H-quinazolin-5-one]
8 | < 1 | Cc1nc(N)nc2c1C(=O)CC(c1ccc(F)cc1-c1cncc(Cl)n1)C2 (stereo not drawn) [Compound 219, 2-amino-7-[2-(6-chloro-pyrazin-2-yl)-4-fluoro-phenyl]-4-methyl-7,8-dihydro-6H-quinazolin-5-one]
9 | < 1 | COc1cccc(-c2cccc(F)c2C2CC(=O)c3c(C)nc(N)nc3C2)n1 (stereo not drawn) [Compound 220, 2-amino-7-[2-fluoro-6-(6-methoxy-pyridin-2-yl)-phenyl]-4-methyl-7,8-dihydro-6H-quinazolin-5-one]
10 | < 1 | COc1cncc(-c2cc(F)ccc2C2CC(=O)c3c(C)nc(N)nc3C2)n1 (stereo not drawn) [Compound 221, 2-amino-7-[4-fluoro-2-(6-methoxy-pyrazin-2-yl)-phenyl]-4-methyl-7,8-dihydro-6H-quinazolin-5-one]
11 | < 1 | Cc1nc(N)nc2c1C(=O)CC(c1cccc(F)c1-c1cccnc1F)C2 (stereo not drawn) [Compound 222, 2-amino-7-[3-fluoro-2-(2-fluoro-pyridin-3-yl)-phenyl]-4-methyl-7,8-dihydro-6H-quinazolin-5-one]
12 | < 1 | Cc1nc(N)nc2c1C(=O)CC(c1ccc(F)cc1-c1cccc(Cl)n1)C2 (stereo not drawn) [Compound 223, 2-amino-7-[2-(6-chloro-pyridin-2-yl)-4-fluoro-phenyl]-4-methyl-7,8-dihydro-6H-quinazolin-5-one]
13 | < 1 | COc1nc(-c2cc(F)ccc2C2CC(=O)c3c(C)nc(N)nc3C2)ncc1F (stereo not drawn) [Compound 224, 2-amino-7-[4-fluoro-2-(5-fluoro-4-methoxy-pyrimidin-2-yl)-phenyl]-4-methyl-7,8-dihydro-6H-quinazolin-5-one]
14 | 1 to 10 | COc1cncc(-c2cc(F)ccc2[C@H]2CC(=O)c3c(C)nc(N)nc3C2)n1 [Compound 225, (R)-2-amino-7-[4-fluoro-2-(6-methoxy-pyrazin-2-yl)-phenyl]-4-methyl-7,8-dihydro-6H-quinazolin-5-one]
15 | < 1 | COc1cncc(-c2cc(F)ccc2[C@@H]2CC(=O)c3c(C)nc(N)nc3C2)n1 [Compound 226, (S)-2-amino-7-[4-fluoro-2-(6-methoxy-pyrazin-2-yl)-phenyl]-4-methyl-7,8-dihydro-6H-quinazolin-5-one]
16 | 1 to 10 | Cc1cnc(C)c(-c2cc(F)ccc2C2CC(=O)c3c(C)nc(N)nc3C2)n1 (stereo not drawn) [Compound 227, 2-amino-7-[2-(3,6-dimethyl-pyrazin-2-yl)-4-fluoro-phenyl]-4-methyl-7,8-dihydro-6H-quinazolin-5-one]
17 | 1 to 10 | Cc1nc(N)nc2c1C(=O)CC(c1ccc(F)cc1-c1nccnc1Cl)C2 (stereo not drawn) [Compound 228, 2-amino-7-[2-(3-chloro-pyrazin-2-yl)-4-fluoro-phenyl]-4-methyl-7,8-dihydro-6H-quinazolin-5-one]
18 | 1 to 10 | COc1nc(-c2cc(F)ccc2[C@H]2CC(=O)c3c(C)nc(N)nc3C2)ncc1F [Compound 229, (R)-2-amino-7-[4-fluoro-2-(5-fluoro-4-methoxy-pyrimidin-2-yl)-phenyl]-4-methyl-7,8-dihydro-6H-quinazolin-5-one]
19 | < 1 | COc1nc(-c2cc(F)ccc2[C@@H]2CC(=O)c3c(C)nc(N)nc3C2)ncc1F [Compound 230, (S)-2-amino-7-[4-fluoro-2-(5-fluoro-4-methoxy-pyrimidin-2-yl)-phenyl]-4-methyl-7,8-dihydro-6H-quinazolin-5-one]
20 | < 1 | Cc1nc(N)nc2c1C(=O)CC(c1ccc(F)cc1-c1nccnc1F)C2 (stereo not drawn) [Compound 231, 2-amino-7-[4-fluoro-2-(3-fluoro-pyrazin-2-yl)-phenyl]-4-methyl-7,8-dihydro-6H-quinazolin-5-one]

Row | IC50 [µM] | Compound
21 | < 1 | COc1nc(-c2cc(F)ccc2C2CC(=O)c3c(C)nc(N)nc3C2)cnc1N (stereo not drawn) [Compound 232, 2-amino-7-[2-(5-amino-6-methoxy-pyrazin-2-yl)-4-fluoro-phenyl]-4-methyl-7,8-dihydro-6H-quinazolin-5-one]
22 | < 1 | COc1nc(-c2cc(F)ccc2C2CC(=O)c3c(C)nc(N)nc3C2)cnc1F (stereo not drawn) [Compound 233, 2-amino-7-[4-fluoro-2-(5-fluoro-6-methoxy-pyrazin-2-yl)-phenyl]-4-methyl-7,8-dihydro-6H-quinazolin-5-one]
23 | > 10 | Cc1nc(N)nc2c1C(=O)CC(c1ncc[nH]1)C2 (stereo not drawn) [Compound 234, 2-amino-7-(1H-imidazol-2-yl)-4-methyl-7,8-dihydro-6H-quinazolin-5-one]
24 | 1 to 10 | COc1cccc(-c2ccccc2C2CC(=O)c3c(C)nc(N)nc3C2)c1F (stereo not drawn) [Compound 235, 2-amino-7-(2′-fluoro-3′-methoxy-biphenyl-2-yl)-4-methyl-7,8-dihydro-6H-quinazolin-5-one]
25 | 1 to 10 | Cc1nc(N)nc2c1C(=O)CC(c1c(F)cccc1Br)C2 (stereo not drawn) [Compound 236, 2-amino-7-(2-bromo-6-fluoro-phenyl)-4-methyl-7,8-dihydro-6H-quinazolin-5-one]
26 | 1 to 10 | Cc1nc(N)nc2c1C(=O)CC(c1cccc(F)c1Br)C2 (stereo not drawn) [Compound 237, 2-amino-7-(2-bromo-3-fluoro-phenyl)-4-methyl-7,8-dihydro-6H-quinazolin-5-one]
27 | 1 to 10 | Cc1nc(N)nc2c1C(=O)CC(c1cc(F)ccc1Br)C2 (stereo not drawn) [Compound 238, 2-amino-7-(2-bromo-5-fluoro-phenyl)-4-methyl-7,8-dihydro-6H-quinazolin-5-one]
28 | 1 to 10 | COc1ccc(Br)c(C2CC(=O)c3c(C)nc(N)nc3C2)c1 (stereo not drawn) [Compound 239, 2-amino-7-(2-bromo-5-methoxy-phenyl)-4-methyl-7,8-dihydro-6H-quinazolin-5-one]
29 | 1 to 10 | COc1cncc(-c2cccc(F)c2C2CC(=O)c3c(C)nc(N)nc3C2)n1 (stereo not drawn) [Compound 240, 2-amino-7-[2-fluoro-6-(6-methoxy-pyrazin-2-yl)-phenyl]-4-methyl-7,8-dihydro-6H-quinazolin-5-one]
30 | > 10 | Cc1nc(N)nc2c1C(=O)C(NC(=O)c1ccccc1)C(c1ccccc1)C2 (stereo not drawn) [Compound 241, N-(2-amino-4-methyl-5-oxo-7-phenyl-5,6,7,8-tetrahydro-quinazolin-6-yl)-benzamide]
31 | > 10 | Cc1nc(N)nc2c1C(=O)CC(c1ccccc1)C2NC(=O)c1ccccc1 (stereo not drawn) [Compound 242, N-(2-amino-4-methyl-5-oxo-7-phenyl-5,6,7,8-tetrahydro-quinazolin-8-yl)-benzamide]
32 | < 1 | Nc1ncc2c(n1)CC(c1ccccc1-c1cccnc1F)CC2=O (stereo not drawn) [Compound 243, 2-amino-7-[2-(2-fluoro-pyridin-3-yl)-phenyl]-7,8-dihydro-6H-quinazolin-5-one]
33 | > 10 | Nc1ncc2c(n1)CC(c1ccccc1Br)CC2=O (stereo not drawn) [Compound 244, 2-amino-7-(2-bromo-phenyl)-7,8-dihydro-6H-quinazolin-5-one]
34 | < 1 | Nc1ncc2c(n1)CC(c1ccccc1-c1cccc(F)n1)CC2=O (stereo not drawn) [Compound 245, 2-amino-7-[2-(6-fluoro-pyridin-2-yl)-phenyl]-7,8-dihydro-6H-quinazolin-5-one]
35 | < 1 | COc1cccc(-c2ccccc2C2CC(=O)c3cnc(N)nc3C2)n1 (stereo not drawn) [Compound 246, 2-amino-7-[2-(6-methoxy-pyridin-2-yl)-phenyl]-7,8-dihydro-6H-quinazolin-5-one]
36 | 1 to 10 | Cc1nc(N)nc2c1C(=O)CC(c1ccccc1)C2C (stereo not drawn) [Compound 247, 2-amino-4,8-dimethyl-7-phenyl-7,8-dihydro-6H-quinazolin-5-one]
37 | < 1 | Cc1nc(N)nc2c1C(=O)C(C)C(c1ccccc1)C2 (stereo not drawn) [Compound 248, 2-amino-4,6-dimethyl-7-phenyl-7,8-dihydro-6H-quinazolin-5-one]
38 | < 1 | Cc1nc(N)nc2c1C(=O)CC(c1ccc(Cl)cc1-c1cccnc1F)C2 (stereo not drawn) [Compound 249, 2-amino-7-[4-chloro-2-(2-fluoro-pyridin-3-yl)-phenyl]-4-methyl-7,8-dihydro-6H-quinazolin-5-one]
39 | < 1 | Cc1nc(N)nc2c1C(=O)CC(c1ccc(Cl)cc1-c1cncnc1)C2 (stereo not drawn) [Compound 250, 2-amino-7-(4-chloro-2-pyrimidin-5-yl-phenyl)-4-methyl-7,8-dihydro-6H-quinazolin-5-one]
